# Measurements from article PMC6003702 (Biopolymers, 2017).
# Where two headings read alike, the source gives them in different places. Where a SMILES comes first, the peptide text is derived from it.
# What was measured:
# mouse DOR = mouse DOR (Mus musculus, UniProt P32300); test: Radioligand binding assay, DOR
# cloned KOR = cloned KOR (Rattus norvegicus, UniProt P34975); test: [35S]GTPγS assay at KOR; format: biochemical; details: SEM
# cloned rat MOR = cloned rat MOR (Rattus norvegicus, UniProt P33535); test: Radioligand binding assay, MOR; details: SEM
# cloned rat KOR = cloned rat KOR (Rattus norvegicus, UniProt P34975); test: Radioligand binding assay, KOR; details: SEM
# cloned rat KOR, sequence (P34975 whole entry): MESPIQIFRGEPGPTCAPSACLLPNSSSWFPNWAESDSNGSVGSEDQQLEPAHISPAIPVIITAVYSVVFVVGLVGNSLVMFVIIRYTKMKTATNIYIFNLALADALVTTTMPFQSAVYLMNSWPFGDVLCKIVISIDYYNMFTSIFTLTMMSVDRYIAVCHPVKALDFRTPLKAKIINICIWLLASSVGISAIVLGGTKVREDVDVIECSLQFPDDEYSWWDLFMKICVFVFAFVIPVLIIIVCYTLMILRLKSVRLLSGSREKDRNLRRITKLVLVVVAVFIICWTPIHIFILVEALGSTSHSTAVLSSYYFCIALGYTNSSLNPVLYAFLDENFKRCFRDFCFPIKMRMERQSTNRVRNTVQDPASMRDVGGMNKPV
# cloned rat MOR, sequence (P33535 whole entry): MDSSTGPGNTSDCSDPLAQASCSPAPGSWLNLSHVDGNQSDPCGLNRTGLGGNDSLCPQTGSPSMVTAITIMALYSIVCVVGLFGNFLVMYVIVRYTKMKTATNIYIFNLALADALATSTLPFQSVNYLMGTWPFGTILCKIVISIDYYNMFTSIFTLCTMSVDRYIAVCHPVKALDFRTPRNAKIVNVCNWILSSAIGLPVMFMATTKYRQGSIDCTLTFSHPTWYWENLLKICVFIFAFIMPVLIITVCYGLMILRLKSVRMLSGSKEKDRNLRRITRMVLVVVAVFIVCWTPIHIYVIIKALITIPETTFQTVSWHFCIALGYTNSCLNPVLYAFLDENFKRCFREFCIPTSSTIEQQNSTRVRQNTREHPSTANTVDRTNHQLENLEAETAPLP
# mouse DOR, sequence (P32300 whole entry): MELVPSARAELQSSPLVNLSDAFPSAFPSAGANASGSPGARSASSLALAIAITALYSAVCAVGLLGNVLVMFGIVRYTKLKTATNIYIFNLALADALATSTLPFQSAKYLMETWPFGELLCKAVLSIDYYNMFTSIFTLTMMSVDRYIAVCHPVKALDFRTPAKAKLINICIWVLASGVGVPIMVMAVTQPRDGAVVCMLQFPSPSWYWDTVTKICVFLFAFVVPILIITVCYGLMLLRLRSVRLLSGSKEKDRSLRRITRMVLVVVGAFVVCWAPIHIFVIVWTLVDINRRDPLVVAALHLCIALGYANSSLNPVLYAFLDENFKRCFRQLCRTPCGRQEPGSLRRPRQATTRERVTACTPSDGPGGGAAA
# cloned KOR, sequence (P34975 whole entry): as the sequence (P34975 whole entry) above
structure (smiles),measurement,setting,value
CC(C)C[C@H](NC(=O)[C@H](Cc1ccccc1)NC(=O)CNC(=O)CNC(=O)[C@H](C)N)C(=O)N[C@@H](CCCNC(=N)N)C(=O)N[C@@H](CCCNC(=N)N)C(=O)N[C@@H](CCC(N)=O)C(=O)N[C@@H](Cc1ccccc1)C(=O)N[C@@H](CCCCN)C(=O)N[C@H](C(=O)N[C@H](C(=O)N[C@H](C(N)=O)[C@@H](C)O)C(C)C)C(C)C [Compound 1] (H-AGGFLRRQFKVVT-NH2),Ki,mouse DOR,> 10000 nM
same,EC50,cloned KOR,2650 ± 890 nM
same,Ki,cloned rat MOR,651 ± 70 nM
same,Ki,cloned rat KOR,886 ± 123 nM
"CC(C)C[C@H](NC(=O)[C@H](Cc1ccccc1)NC(=O)CNC(=O)CNC(=O)[C@@H](N)Cc1ccc(O)cc1)C(=O)N[C@@H](CCCNC(=N)N)C(=O)N[C@@H](CCCNC(=N)N)C(=O)N[C@@H](CCC(N)=O)C(=O)N[C@@H](Cc1ccccc1)C(=O)N[C@@H](CCCCN)C(=O)N[C@H](C(=O)N[C@H](C(=O)N[C@H](C(N)=O)[C@@H](C)O)C(C)C)C(C)C [Dyn B amide, reference compound]",Ki,mouse DOR; SEM,43.2 ± 1.6 nM
same,EC50,cloned KOR,9.14 ± 1.96 nM
same,Ki,cloned rat MOR,8.05 ± 2.87 nM
same,Ki,cloned rat KOR,6.3 ± 1.68 nM
CC(C)C[C@H](NC(=O)[C@H](Cc1ccccc1)NC(=O)CNC(=O)CNC(=O)[C@@H](N)Cc1ccc(O)cc1)C(=O)N[C@@H](C)C(=O)N[C@@H](CCCNC(=N)N)C(=O)N[C@@H](CCC(N)=O)C(=O)N[C@@H](Cc1ccccc1)C(=O)N[C@@H](CCCCN)C(=O)N[C@H](C(=O)N[C@H](C(=O)N[C@H](C(N)=O)[C@@H](C)O)C(C)C)C(C)C [Compound 4] (H-YGGFLARQFKVVT-NH2),Ki,mouse DOR; SEM,25.7 ± 1.6 nM
same,EC50,cloned KOR,116 ± 21 nM
same,Ki,cloned rat MOR,14.1 ± 3 nM
same,Ki,cloned rat KOR,43.1 ± 2.8 nM
CC(C)C[C@H](NC(=O)[C@H](C)NC(=O)CNC(=O)CNC(=O)[C@@H](N)Cc1ccc(O)cc1)C(=O)N[C@@H](CCCNC(=N)N)C(=O)N[C@@H](CCCNC(=N)N)C(=O)N[C@@H](CCC(N)=O)C(=O)N[C@@H](Cc1ccccc1)C(=O)N[C@@H](CCCCN)C(=O)N[C@H](C(=O)N[C@H](C(=O)N[C@H](C(N)=O)[C@@H](C)O)C(C)C)C(C)C [Compound 2] (H-YGGALRRQFKVVT-NH2),Ki,mouse DOR,> 10000 nM
same,EC50,cloned KOR,1180 ± 330 nM
same,Ki,cloned rat MOR,1040 ± 100 nM
same,Ki,cloned rat KOR,1510 ± 221 nM
CC(C)C[C@H](NC(=O)[C@H](Cc1ccccc1)NC(=O)CNC(=O)CNC(=O)[C@@H](N)Cc1ccc(O)cc1)C(=O)N[C@@H](CCCNC(=N)N)C(=O)N[C@@H](CCCNC(=N)N)C(=O)N[C@@H](CCC(N)=O)C(=O)N[C@@H](C)C(=O)N[C@@H](CCCCN)C(=O)N[C@H](C(=O)N[C@H](C(=O)N[C@H](C(N)=O)[C@@H](C)O)C(C)C)C(C)C [Compound 7] (H-YGGFLRRQAKVVT-NH2),Ki,mouse DOR; SEM,42.1 ± 2.5 nM
same,EC50,cloned KOR,14.8 ± 2.6 nM
same,Ki,cloned rat MOR,3.76 ± 0.22 nM
same,Ki,cloned rat KOR,11.3 ± 1.7 nM
CC(C)C[C@H](NC(=O)[C@H](Cc1ccccc1)NC(=O)CNC(=O)CNC(=O)[C@@H](N)Cc1ccc(O)cc1)C(=O)N[C@@H](CCCNC(=N)N)C(=O)N[C@@H](CCCNC(=N)N)C(=O)N[C@@H](CCC(N)=O)C(=O)N[C@@H](Cc1ccccc1)C(=O)N[C@@H](C)C(=O)N[C@H](C(=O)N[C@H](C(=O)N[C@H](C(N)=O)[C@@H](C)O)C(C)C)C(C)C [Compound 8] (H-YGGFLRRQFAVVT-NH2),Ki,mouse DOR; SEM,119 ± 16 nM
same,EC50,cloned KOR,6.36 ± 1.7 nM
same,Ki,cloned rat MOR,40.5 ± 3.9 nM
same,Ki,cloned rat KOR,31.6 ± 6 nM
CC(C)C[C@H](NC(=O)[C@H](Cc1ccccc1)NC(=O)CNC(=O)CNC(=O)[C@@H](N)Cc1ccc(O)cc1)C(=O)N[C@@H](CCCNC(=N)N)C(=O)N[C@@H](C)C(=O)N[C@@H](CCC(N)=O)C(=O)N[C@@H](Cc1ccccc1)C(=O)N[C@@H](CCCCN)C(=O)N[C@H](C(=O)N[C@H](C(=O)N[C@H](C(N)=O)[C@@H](C)O)C(C)C)C(C)C [Compound 5] (H-YGGFLRAQFKVVT-NH2),Ki,mouse DOR; SEM,67.5 ± 8.3 nM
same,EC50,cloned KOR,802 ± 290 nM
same,Ki,cloned rat MOR,16.7 ± 5.1 nM
same,Ki,cloned rat KOR,82.4 ± 9.3 nM
CC(C)C[C@H](NC(=O)[C@H](Cc1ccccc1)NC(=O)CNC(=O)CNC(=O)[C@@H](N)Cc1ccc(O)cc1)C(=O)N[C@@H](CCCNC(=N)N)C(=O)N[C@@H](CCCNC(=N)N)C(=O)N[C@@H](CCC(N)=O)C(=O)N[C@@H](Cc1ccccc1)C(=O)N[C@@H](CCCCN)C(=O)N[C@@H](C)C(=O)N[C@H](C(=O)N[C@H](C(N)=O)[C@@H](C)O)C(C)C [Compound 9] (H-YGGFLRRQFKAVT-NH2),Ki,mouse DOR; SEM,58.8 ± 3.4 nM
same,EC50,cloned KOR,8.79 ± 2.2 nM
same,Ki,cloned rat MOR,7.45 ± 2.69 nM
same,Ki,cloned rat KOR,12.4 ± 1.6 nM
CC(C)C[C@H](NC(=O)[C@H](Cc1ccccc1)NC(=O)CNC(=O)CNC(=O)[C@@H](N)Cc1ccc(O)cc1)C(=O)N[C@@H](CCCNC(=N)N)C(=O)N[C@@H](CCCNC(=N)N)C(=O)N[C@@H](C)C(=O)N[C@@H](Cc1ccccc1)C(=O)N[C@@H](CCCCN)C(=O)N[C@H](C(=O)N[C@H](C(=O)N[C@H](C(N)=O)[C@@H](C)O)C(C)C)C(C)C [Compound 6] (H-YGGFLRRAFKVVT-NH2),Ki,mouse DOR; SEM,54 ± 6.9 nM
same,EC50,cloned KOR,20.2 ± 10.8 nM
same,Ki,cloned rat MOR,4.32 ± 0.1 nM
same,Ki,cloned rat KOR,13 ± 0.96 nM
CC(C)[C@H](NC(=O)[C@H](CCCCN)NC(=O)[C@H](Cc1ccccc1)NC(=O)[C@H](CCC(N)=O)NC(=O)[C@H](CCCNC(=N)N)NC(=O)[C@H](CCCNC(=N)N)NC(=O)[C@H](C)NC(=O)[C@H](Cc1ccccc1)NC(=O)CNC(=O)CNC(=O)[C@@H](N)Cc1ccc(O)cc1)C(=O)N[C@H](C(=O)N[C@H](C(N)=O)[C@@H](C)O)C(C)C [Compound 3] (H-YGGFARRQFKVVT-NH2),Ki,mouse DOR; SEM,265 ± 43 nM
same,EC50,cloned KOR,109 ± 34 nM
same,Ki,cloned rat MOR,20.3 ± 3.1 nM
same,Ki,cloned rat KOR,12.1 ± 5.2 nM
